Molecules are shown by their SMILES. “And” between values parts separate entries of the source, which are not always exact repeats. Identical values can stand only once.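 Protocol summary: plate cells (96-well), add compound at 5 concentrations, incubate 48 h, interpolate endpoints linearly. GI50: concentration for 50% inhibition of growth. TGI: concentration producing complete growth inhibition.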

Broadly, the GI50 is the concentration that inhibits growth by half. What is called TGI is the concentration giving total growth inhibition. A high value points to less potent growth arrest.

For this experiment, the system named is MDA-MB-468 breast. The experiment in a line: DTP human tumour cell line panel, 48 h.

As to `Cc1ccc2sc3c(NCCCN)nc4ccccc4c3c(=O)c2c1`, the GI50 was 1.67 µM and the total growth inhibition concentration (TGI) was 3.36 µM.
`Nc1nc(-c2ccc3c(c2)/C(=C\c2cc(Br)c(O)c(Br)c2)C(=O)N3)cs1`: the GI50 is 6.5 µM and the concentration for total growth inhibition (TGI) is more than 22.8 µM.
Consider `CCC(=O)NC1=C(Cl)C(=O)C(NC(=O)CC)=C(Cl)C1=O`, for which the GI50 was 1.72 µM and the TGI stood at 3.66 µM.
On the same counts, the results for `COC(=O)Nc1nc2ccc(C(=O)c3cccc(I)c3)cc2[nH]1` are 0.0598 µM and 2.14 µM.
Turning to `CCC[CH2][Sn]1([CH2]CCC)[O]C(=O)c2cccc([N+](=O)[O-])c2C(=O)[O]1`, the GI50 was 0.153 µM and the TGI came out at 0.449 µM.
In the case of `Cc1[nH]nc(C(F)(F)F)c1Cc1sc2c(c1C(=O)N1C[C@](C)(O)CO1)c(=O)n(C)c(=O)n2C(C)C`, the GI50 is more than 100 µM and the TGI was more than 100 µM.
As to `C[C@@H]1CC[C@@H]2[C@@H]1[C@H](OC(=O)/C=C/C1CCCCC1)[C@]1(C3CCCCC3)C[C@@H](OC(=O)CO)[C@@]2(C)O1`, the GI50 was 13.4 µM and the TGI was determined as 27.5 µM.
Take `CCN1CCN(c2ccc(NC(=O)Nc3nc4ccc(-c5ccccc5OC)cc4s3)cc2)CC1`: the GI50 is 2.17 µM and the TGI worked out at 4.03 µM.
On the same counts, the results for `Cc1nnc(N/N=C/c2ccc([N+](=O)[O-])o2)[nH]c1=O` are 0.749 µM and 12.2 µM.
Regarding `COc1cc(OC)c(/C=C/C(=O)c2c(OC)cc(OC)cc2OC)c(OC)c1`, the GI50 is 0.7 µM and the TGI turned out to be 4.55 µM.
Turning to `Cc1c(C(=O)Nc2ccc(N3C[C@@H](C)O[C@@H](C)C3)nc2)cccc1-c1ccc(OC(F)(F)F)cc1`, the GI50 was 3.11 µM and 5.62 µM; the TGI was 19.2 µM and 31.7 µM.
Consider `C=CCc1c(O)c(C(=O)/C=C/c2ccc(Cl)cc2)c(OC)c2ccoc12`, for which the GI50 is 2.27 µM and the concentration for total growth inhibition (TGI) is 5.84 µM.
For `O=C(Nc1cccc([N+](=O)[O-])c1)c1cccc(C(=O)Nc2cccc([N+](=O)[O-])c2)c1`, in that order: more than 100 µM and more than 100 µM.
Take `N#C/C(=C\c1ccc[nH]1)c1cc(-c2ccc(Cl)cc2)nn1-c1ccccc1`: the GI50 is 0.269 µM and the TGI turned out to be 2.23 µM.
Regarding `Cc1cc(OCc2ccc(C(F)(F)F)cc2)c2c(c1)C(=O)C=C(NCCN1CCCC1)C2=O`, the GI50 is 2 µM and the TGI came to 4.55 µM.
For `Clc1cnc(Nc2ccc(OCCN3CCCC3)cc2)nc1NCc1ccco1`, in that order: 2.37 µM and 5.1 µM.
With `Cn1nc(C(F)(F)F)cc1-c1cc(Cl)c(OCc2ccc(Cl)cc2)c(-c2ccc(Cl)c(C(F)(F)F)c2)c1O`, the GI50 was 0.833 µM and the TGI was 4.97 µM.
As for `CCOP(=O)(OCC)/C(=C/n1c(=S)[nH]c2ccccc21)C(=O)OC`, the GI50 is more than 100 µM and the TGI is more than 100 µM.
Consider `O=C1/C=C/[C@@H](O)[C@@H]2C[C@@H](O)C[C@H]2/C=C/CCC[C@H](CCO)O1`, for which the GI50 was 0.0239 µM and the TGI was determined as 0.0757 µM.
As to `c1ccc2c(N=NSc3ncnc4nc[nH]c34)c3ccccc3nc2c1`, the GI50 is 0.549 µM and the TGI came out at 2.34 µM.
As to `COc1c(C(N)=O)cc(-c2ccc(Cl)cc2)cc1-c1ccc(S(N)(=O)=O)cc1`, the GI50 is 4.33 µM and the TGI stood at 11.1 µM.
In the case of `COc1ccc(C(=O)/C=C/c2ccc(OCc3cccc(C(F)(F)F)c3)c(OC)c2)cc1OC`, the GI50 is 107 µM and the TGI is more than 1000 µM.
As to `COc1cc2ncnc(Oc3ccc(NC(=O)Nc4ccc(CN5CCOCC5)c(C(F)(F)F)c4)c4ccccc34)c2cc1OC`, the GI50 is 0.249 µM and the TGI turned out to be 1.85 µM.
With `CCN(CC)CCOc1nc2ccccc2c2c1-c1ccc(OC)cc1C2=O`, the GI50 is 0.857 µM and the TGI is 3.26 µM.
On to `NC(=Nc1ccccc1)N/N=C/c1c[nH]c2ccccc12`, for which the GI50 is 0.501 µM and the TGI is 1.87 µM.
As for `Cc1ccsc1C(NC(=O)c1ccccc1)c1cc(Cl)c2cccnc2c1O` (configuration not stated), the GI50 was 0.602 µM and the TGI came to 5.63 µM.
For the compound `CC1=CC2(C)/C=C(C)/C=C\CC(O)/C=C3/C=CC(=C4C(=O)OC2(CC1C)C4=O)OC3` (configuration not stated), the GI50 is 1.18 µM and the TGI was 2.85 µM.
Regarding `CCCCCCCCN(CCCCCCCC)CC(O)c1cc(-c2ccccc2)nc2ccc(OC)cc12` (configuration not stated), the GI50 was 39.2 µM and the TGI is more than 100 µM.
For `O=C1C2=C(C(=O)c3ccccc31)C(O)(S(=O)(=O)O)C(O)(S(=O)(=O)O)C1N=CC=CC21` (configuration not stated), the GI50 is 10.6 µM and 4.29 µM; the TGI is 37.5 µM and 21.2 µM.
With `CCN1CCN(C(=O)[C@]23CC[C@@H](C)[C@H](C)[C@@H]2C2=CC[C@@H]4[C@@]5(C)CCC(=O)C(C)(C)[C@@H]5CC[C@@]4(C)[C@]2(C)CC3)CC1`, the GI50 was 0.931 µM and the TGI was 2.32 µM.
Consider `CCOC(=O)C1=C(Nc2ccc(OC)cc2)C(N)=NC1=N`, for which the GI50 is 0.474 µM and the TGI was more than 100 µM.
Take `CC1Cc2c(Cl)ncnc2N(C)c2ccccc21` (configuration not stated): the GI50 was 1.6 µM and the TGI worked out at 6.81 µM.
Take `Oc1c(C(c2ccc(F)cc2)N2CCCCC2)ccc2cncnc12` (configuration not stated): the GI50 was 0.494 µM and the TGI amounted to 8.47 µM.
On the same counts, the results for `CN1C(=O)N(C)C2C1NC(=S)N2/N=C/C=C/c1ccccc1[N+](=O)[O-]` (configuration not stated) are 0.431 µM and 88.2 µM.
On the same counts, the results for `CC(C)(C)NCC(O)c1ccccc1Cl` (configuration not stated) are more than 100 µM and more than 100 µM.
For the compound `CCOC(=O)N1CCC(N=C2CSc3nnc(-c4cc(C(F)(F)F)cc(C(F)(F)F)c4)n3N2)CC1`, the GI50 was 1.74 µM and the TGI was 4.67 µM.
With `COc1ccc2c3ccnc(C(F)(F)F)c3n(CCCCN)c2c1`, the GI50 was 3.22 µM and the TGI came out at 13.4 µM.
For the compound `COc1nn(C)cc1Nc1nccc(-c2c[nH]c3c(NC(=O)[C@@H](C)N4CCN(C)CC4)cccc23)n1`, the GI50 was 25 µM and the TGI was 67.8 µM.
Consider `CC(C)[C@@H](C(=O)O[C@@H]1/C=C/C(=O)O[C@@H](C)CCC/C=C/[C@@H]2C[C@H](O)C[C@H]21)N(C)C`, for which the GI50 is 1.53 µM and the TGI came to 6.18 µM.
On to `O=C(Nc1nc2c(C(F)(F)F)cccc2s1)c1cc(Cl)ccc1O`, for which the GI50 was 0.226 µM and the TGI is 0.749 µM.
On the same counts, the results for `CN1CCN(Cc2ccc(NC(=O)c3cncc(C#Cc4ccc(N)nc4)c3)cc2C(F)(F)F)CC1` are 1.01 µM and 4.3 µM.
